Read-outs that look alike come from different tables or passages of the source.
Legend:
[1] = cited from earlier work; for Measured or Calculated pKas (first value): first value in cell; for Measured or Calculated pKas (second value): second value in cell
[2] = target: Human Epidermal Growth Factor Receptor 2 (HER2) (Homo sapiens, UniProt P04626); settings: cited from earlier work
[3] = system: tumor cell lines expressing HER2 and EGFR; settings: oral administration; cited from earlier work
HER4 = HER4 (Homo sapiens, UniProt Q15303); settings: cited from earlier work
[4] = system: EGFR and HER2 autophosphorylation, downstream MAPK and AKT signaling pathways; settings: in vitro; cited from earlier work
[5] = system: EGFR and/or HER2 expressing carcinoma cell lines; settings: in vitro; cited from earlier work
[6] = Kinetic solubility profiles of palbociclib ASD powders; assay type: physicochemical; settings: aqueous buffer, thermodynamic from solid; pH 6.5 phosphate buffer, 37 C
[7] = cited from earlier work

Chain of Human Epidermal Growth Factor Receptor 2 (HER2) (P04626 23-1255): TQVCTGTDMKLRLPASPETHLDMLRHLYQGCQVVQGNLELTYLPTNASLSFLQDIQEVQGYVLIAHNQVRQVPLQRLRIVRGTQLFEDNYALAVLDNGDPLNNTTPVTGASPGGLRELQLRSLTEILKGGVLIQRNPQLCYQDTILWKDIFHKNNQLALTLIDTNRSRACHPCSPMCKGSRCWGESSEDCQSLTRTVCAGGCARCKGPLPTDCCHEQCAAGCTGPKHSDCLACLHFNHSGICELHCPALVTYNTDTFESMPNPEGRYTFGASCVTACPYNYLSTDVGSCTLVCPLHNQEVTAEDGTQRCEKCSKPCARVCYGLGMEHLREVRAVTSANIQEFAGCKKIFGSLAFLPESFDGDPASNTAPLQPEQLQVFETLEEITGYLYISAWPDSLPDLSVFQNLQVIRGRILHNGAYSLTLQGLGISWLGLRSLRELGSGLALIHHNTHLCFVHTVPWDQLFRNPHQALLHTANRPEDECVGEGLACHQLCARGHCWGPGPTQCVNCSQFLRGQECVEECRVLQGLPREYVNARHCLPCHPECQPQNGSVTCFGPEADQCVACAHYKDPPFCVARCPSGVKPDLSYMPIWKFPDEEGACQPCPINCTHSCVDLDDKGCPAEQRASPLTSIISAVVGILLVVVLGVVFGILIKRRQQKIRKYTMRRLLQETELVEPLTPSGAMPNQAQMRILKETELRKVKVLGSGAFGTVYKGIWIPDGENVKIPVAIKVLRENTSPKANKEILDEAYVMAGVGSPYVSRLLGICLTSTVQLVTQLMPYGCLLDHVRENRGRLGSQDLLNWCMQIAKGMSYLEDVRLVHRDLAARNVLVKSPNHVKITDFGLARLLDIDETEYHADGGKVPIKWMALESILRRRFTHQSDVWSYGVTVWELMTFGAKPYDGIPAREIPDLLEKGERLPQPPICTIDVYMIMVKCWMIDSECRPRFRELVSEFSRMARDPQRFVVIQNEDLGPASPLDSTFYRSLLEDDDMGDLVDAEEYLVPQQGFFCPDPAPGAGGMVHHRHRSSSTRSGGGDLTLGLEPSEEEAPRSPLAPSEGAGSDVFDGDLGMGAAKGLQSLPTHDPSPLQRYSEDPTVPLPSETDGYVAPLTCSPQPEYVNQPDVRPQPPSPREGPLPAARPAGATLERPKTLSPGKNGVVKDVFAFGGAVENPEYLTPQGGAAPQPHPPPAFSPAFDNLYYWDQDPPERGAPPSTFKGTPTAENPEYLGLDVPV
Chain of HER4 (Q15303 26-1308): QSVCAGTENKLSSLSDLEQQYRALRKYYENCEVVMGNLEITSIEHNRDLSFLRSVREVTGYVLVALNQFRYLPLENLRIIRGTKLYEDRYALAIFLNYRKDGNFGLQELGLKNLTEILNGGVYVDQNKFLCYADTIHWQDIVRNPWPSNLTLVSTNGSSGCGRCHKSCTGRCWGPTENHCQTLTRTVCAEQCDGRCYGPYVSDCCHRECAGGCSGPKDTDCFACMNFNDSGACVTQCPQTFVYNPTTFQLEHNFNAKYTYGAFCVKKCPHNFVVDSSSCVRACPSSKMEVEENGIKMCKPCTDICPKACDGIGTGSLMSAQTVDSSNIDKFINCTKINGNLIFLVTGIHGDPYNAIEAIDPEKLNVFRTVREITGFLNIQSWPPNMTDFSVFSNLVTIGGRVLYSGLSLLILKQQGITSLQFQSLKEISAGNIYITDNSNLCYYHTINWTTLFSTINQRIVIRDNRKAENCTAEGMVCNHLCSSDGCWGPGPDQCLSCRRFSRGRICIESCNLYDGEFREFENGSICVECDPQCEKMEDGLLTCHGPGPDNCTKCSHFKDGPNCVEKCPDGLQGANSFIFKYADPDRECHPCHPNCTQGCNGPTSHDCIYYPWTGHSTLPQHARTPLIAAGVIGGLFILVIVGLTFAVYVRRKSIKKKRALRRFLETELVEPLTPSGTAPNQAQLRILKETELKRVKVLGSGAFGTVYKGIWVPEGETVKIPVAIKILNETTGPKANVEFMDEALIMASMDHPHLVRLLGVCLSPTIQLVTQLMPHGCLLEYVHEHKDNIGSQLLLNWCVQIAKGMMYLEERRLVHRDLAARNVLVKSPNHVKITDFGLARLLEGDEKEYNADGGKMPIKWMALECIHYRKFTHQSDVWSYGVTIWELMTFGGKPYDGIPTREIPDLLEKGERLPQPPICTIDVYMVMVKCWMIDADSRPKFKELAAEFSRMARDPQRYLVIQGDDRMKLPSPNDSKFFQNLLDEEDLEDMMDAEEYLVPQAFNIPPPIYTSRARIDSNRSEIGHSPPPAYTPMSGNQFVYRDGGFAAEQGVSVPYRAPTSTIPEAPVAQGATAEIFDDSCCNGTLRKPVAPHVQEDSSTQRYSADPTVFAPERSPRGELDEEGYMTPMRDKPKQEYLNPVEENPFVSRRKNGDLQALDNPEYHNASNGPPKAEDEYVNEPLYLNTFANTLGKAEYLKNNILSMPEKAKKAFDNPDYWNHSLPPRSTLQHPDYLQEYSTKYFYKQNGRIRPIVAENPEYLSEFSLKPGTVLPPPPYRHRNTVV

Row | Compound | Measured or Calculated pKas (first value) [1] | Measured or Calculated pKas (second value) [1] | further results
1 | CC1(C)S[C@@H]2[C@H](NC(=O)[C@H](N)c3ccc(O)cc3)C(=O)N2[C@H]1C(=O)O [Amoxicillin] | 3.39 | 6.71 | –
2 | CC[C@H]1OC(=O)[C@H](C)[C@@H](O[C@H]2C[C@@](C)(OC)[C@@H](O)[C@H](C)O2)[C@H](C)[C@@H](O[C@@H]2O[C@H](C)C[C@H](N(C)C)[C@H]2O)[C@](C)(O)C[C@@H](C)CN(C)[C@H](C)[C@@H](O)[C@]1(C)O [Azithromycin] | 7.34 | – | –
3 | CCC(C(=O)O)c1ccc(CC(C)C)cc1 (stereo not drawn) [Butibufen] | 4.64 | – | –
4 | CC(C(=O)O)c1ccc2c(c1)[nH]c1ccc(Cl)cc12 (stereo not drawn) [Carprofen] | 4.63 | – | –
5 | CN(C)[C@@H]1C(O)=C(C(N)=O)C(=O)[C@@]2(O)C(O)=C3C(=O)c4c(O)ccc(Cl)c4[C@@](C)(O)[C@H]3C[C@@H]12 [Chlortetracycline] | 3.33 ± 0.30 | 7.55 ± 0.02 | –
6 | CC[C@H]1OC(=O)[C@H](C)[C@@H](O[C@H]2C[C@@](C)(OC)[C@@H](O)[C@H](C)O2)[C@H](C)[C@@H](O[C@@H]2O[C@H](C)C[C@H](N(C)C)[C@H]2O)[C@](C)(OC)C[C@@H](C)C(=O)[C@H](C)[C@@H](O)[C@]1(C)O [Clarithromycin] | 7.25 | – | –
7 | CN1C[C@@H]2C[C@H]1CN2c1cc2c(cc1F)c(=O)c(C(=O)O)cn2C1CC1 [Danofloxacin] | 6.07 ± 0.06 | 8.56 ± 0.07 | –
8 | CN(C)[C@@H]1C(O)=C(C(N)=O)C(=O)[C@@]2(O)C(O)=C3C(=O)c4c(O)ccc(Cl)c4[C@@H](O)[C@H]3C[C@@H]12 [Demeclocycline] | 3.37 ± 0.30 | 7.36 ± 0.03 | –
9 | O=C(O)Cc1ccccc1Nc1c(Cl)cccc1Cl [Diclofenac] | 4.16 | – | –
10 | CN1CCN(c2cc3c(cc2F)c(=O)c(C(=O)O)cn3-c2ccc(F)cc2)CC1 [Difloxacin] | 5.66 ± 0.04 | 7.24 ± 0.06 | –
11 | C[C@H]1c2cccc(O)c2C(=O)C2=C(O)[C@]3(O)C(=O)C(C(N)=O)=C(O)[C@@H](N(C)C)[C@@H]3[C@@H](O)[C@@H]21 [Doxycycline] | 3.02 ± 0.30 | 7.97 ± 0.15 | –
12 | CCn1cc(C(=O)O)c(=O)c2cc(F)c(N3CCNCC3)nc21 [Enoxacin] | 5.05 ± 0.08 | 6.25 ± 0.05 | –
13 | CCN1CCN(c2cc3c(cc2F)c(=O)c(C(=O)O)cn3C2CC2)CC1 [Enrofloxacin] | 5.88 ± 0.03 | 7.74 ± 0.03 | –
14 | C#Cc1cccc(Nc2ncnc3cc(OCCOC)c(OCCOC)cc23)c1 [Erlotinib] | 5.4 | – | –
15 | O=C(O)CCC(=O)c1ccc(-c2ccccc2)cc1 [Fenbufen] | 4.56 | – | –
16 | CN1CCN(c2c(F)cc3c(=O)c(C(=O)O)cn(CCF)c3c2F)CC1 [Fleroxacin] | 5.46 | 8.00 | –
17 | CC(C(=O)O)c1ccc(-c2ccccc2)c(F)c1 (stereo not drawn) [Flurbiprofen] | 4.35 | – | –
18 | COc1cc2ncnc(Nc3ccc(F)c(Cl)c3)c2cc1OCCCN1CCOCC1 [Gefitinib] | 7.2 | – | –
19 | CC(C)Cc1ccc(C(C)C(=O)O)cc1 (stereo not drawn) [Ibuprofen] | 4.51 | – | –
20 | CC(CCc1ccccc1)NCC(O)c1ccc(O)c(C(N)=O)c1 (stereo not drawn) [Labetalol] | 7.35 | – | –
21 | CN1CCN(c2c(F)cc3c(=O)c(C(=O)O)cn4c3c2OCN4C)CC1 [Marbofloxacin] | 5.69 ± 0.10 | 8.02 ± 0.20 | –
22 | C=C1c2c(Cl)ccc(O)c2C(=O)C2=C(O)[C@]3(O)C(=O)C(C(N)=O)=C(O)[C@@H](N(C)C)[C@@H]3[C@@H](O)[C@H]12 [Meclocycline] | 4.05 ± 0.30 | 6.87 ± 0.39 | –
23 | CCOc1cc2ncc(C#N)c(Nc3ccc(OCc4ccccn4)c(Cl)c3)c2cc1NC(=O)/C=C/CN(C)C [Neratinib] | – | – | binding to HER2 [2]: irreversibly binds; tumor growth in mouse xenograft models [3]: inhibited tumor growth; binding to HER4 (HER4): irreversibly binds; EGFR and HER2 autophosphorylation, downstream MAPK and AKT signaling [4]: reduces; antitumor activity in carcinoma cell lines [5]: antitumor activity

Row | Compound | Measured or Calculated pKas (first value) [1] | Measured or Calculated pKas (second value) [1] | further results
24 | CC1COc2c(N3CCN(C)CC3)c(F)cc3c(=O)c(C(=O)O)cn1c23 (stereo not drawn) [Ofloxacin] | 6.22 ± 0.05 | 7.81 ± 0.08 | –
25 | COc1ccc2[nH]c([S+]([O-])Cc3ncc(C)c(OC)c3C)nc2c1 (stereo not drawn) [Omeprazole] | 4.14 | 8.90 | –
26 | C=CCOc1ccccc1OCC(O)CNC(C)C (stereo not drawn) [Oxprenolol] | 9.62 | – | –
27 | CN(C)[C@@H]1C(O)=C(C(N)=O)C(=O)[C@@]2(O)C(O)=C3C(=O)c4c(O)cccc4[C@@](C)(O)[C@H]3[C@H](O)[C@@H]12 [Oxytetracycline] | 3.04 | 8.00 | –
28 | CC(=O)c1c(C)c2cnc(Nc3ccc(N4CCNCC4)cn3)nc2n(C2CCCC2)c1=O [Palbociclib, 6-acetyl-8-cyclopentyl-5-methyl-2-[(5-piperazin-1-ylpyridin-2-yl)amino]pyrido[2,3-d]pyrimidin-7-one] | – | – | solubility [6]: < 10 µg/mL; solubility ([7]; pH value below 4): high; solubility ([7]; pH value higher than 4): less than 0.02 mg/ml
29 | CCn1cc(C(=O)O)c(=O)c2cnc(N3CCNCC3)nc21 [Pipemidic acid] | 5.42 ± 0.05 | 8.18 ± 0.09 | –
30 | CC(=O)Nc1ccc(OCC(O)CNC(C)C)cc1 (stereo not drawn) [Practolol] | 9.41 | – | –
31 | CCN(CC)CCOC(=O)c1ccc(N)cc1 [Procaine] | 2.28 ± 0.08 | 9.02 ± 0.01 | –
32 | CC(C)NCC(O)COc1cccc2ccccc12 (stereo not drawn) [Propranolol] | 9.49 ± 0.2 | – | –
33 | CC[C@H]1OC(=O)[C@H](C)[C@@H](O[C@H]2C[C@@](C)(OC)[C@@H](O)[C@H](C)O2)[C@H](C)[C@@H](O[C@@H]2O[C@H](C)C[C@H](N(C)C)[C@H]2O)[C@](C)(O)C[C@@H](C)/C(=N\OCOCCOC)[C@H](C)[C@@H](O)[C@]1(C)O [Roxithromycin] | 9.17 ± 0.30 | – | –
34 | O=C(O)c1cn(-c2ccc(F)cc2)c2cc(N3CCNCC3)c(F)cc2c1=O [Sarafloxacin] | 5.62 ± 0.08 | 8.18 ± 0.09 | –
35 | CC(=O)NS(=O)(=O)c1ccc(N)cc1 [Sulfacetamide] | 1.95 ± 0.11 | 5.30 ± 0.05 | –
36 | Nc1ccc(S(=O)(=O)Nc2ccc(Cl)nn2)cc1 [Sulfachloropyridazine] | 1.87 ± 0.30 | 5.45 ± 0.06 | –
37 | Nc1ccc(S(=O)(=O)Nc2ncccn2)cc1 [Sulfadiazine] | 2.10 | 6.28 | –
38 | [H]/N=C(/N)NS(=O)(=O)c1ccc(N)cc1 [Sulfaguanidine] | 1.55 | 11.24 | –
39 | Cc1ccnc(NS(=O)(=O)c2ccc(N)cc2)n1 [Sulfamerazine] | 2.17 | 6.77 | –
40 | Cc1cc(C)nc(NS(=O)(=O)c2ccc(N)cc2)n1 [Sulfamethazine] | 2.28 | 7.42 | –
41 | Cc1nnc(NS(=O)(=O)c2ccc(N)cc2)s1 [Sulfamethizole] | 1.86 ± 0.30 | 5.29 ± 0.04 | –
42 | Nc1ccc(S(=O)(=O)Nc2nccs2)cc1 [Sulfathiazole] | 2.08 | 7.07 | –
43 | CC(C)(C)NC[C@H](O)COc1nsnc1N1CCOCC1 [Timolol] | 9.34 | – | –
44 | COc1cc(Cc2cnc(N)nc2N)cc(OC)c1OC [Trimethoprim] | 3.23 ± 0.30 | 6.76 ± 0.12 | –
45 | CC[C@H]1OC(=O)C[C@@H](O)[C@H](C)[C@@H](O[C@@H]2O[C@H](C)[C@@H](O[C@H]3C[C@@](C)(O)[C@@H](O)[C@H](C)O3)[C@H](N(C)C)[C@H]2O)[C@@H](CC=O)C[C@@H](C)C(=O)/C=C/C(C)=C/[C@@H]1CO[C@@H]1O[C@H](C)[C@@H](O)[C@@H](OC)[C@H]1OC [Tylosin] | 3.31 ± 0.30 | 7.50 ± 0.13 | –
